Measured values reported in PubChem BioAssay AID1159560 (GlaxoSmithKline (GSK), 2015).
Active and inactive are the calls of the source. How the calls were made is not given here.

What follows are molecules tested on Leishmania donovani growth inhibition (assay: Leishmania donovani growth inhibition (AID 1159560);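 further: parasites exposed to compound for 72 h before the viability read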).
Molecule `Cc1ccc2nc(N(Cc3cccnc3)C(=O)CCc3ccccc3)sc2c1` has an IC50 of 25 µM. For `CCC(c1ccc(F)cc1)n1cncc1-c1cnn(C)c1` (centres undefined), the IC50 was > 50 µM (inactive). Molecule `c1ccc(Nc2nc(-c3ccccn3)cc(N3CCOCC3)n2)cc1` has an IC50 of 6.3 µM. `CCOc1ccc(OCC(=O)N2c3ccccc3CC2C(=O)NC)cc1` (centres undefined) was tested, and the IC50 was > 50 µM (inactive). `O=C(Nc1cccc(S(=O)(=O)Nc2ccc(Br)cc2)c1)c1ccc([N+](=O)[O-])s1` showed an IC50 of 0.79 µM. For `Clc1ccc(OCCN2CCCCC2c2cccnc2)c(Cl)c1` (centres undefined), the IC50 was 5 µM. `Cc1c(C(C)NC(=O)Nc2cccc(Cl)c2)sc2ncnn12` (centres undefined) gave an IC50 of 2 µM. Molecule `N#Cc1cccc(CNc2ccc(-c3cnn(CC4CC4)c(=O)c3C#N)cc2)c1` has an IC50 of 25 µM. Work on `Cc1[nH]nc2c1C(c1ccc(OCc3ccccc3F)cc1)SCC(=O)N2` (centres undefined) yielded an IC50 of 40 µM. `Cn1c(CC(=O)NNC(=O)c2ccc3ccccc3n2)nc2ccccc21` gave an IC50 of 6.3 µM. With `COc1ccccc1C=CCN1C[C@H]2CCC[C@@H](C1)C2(O)c1cccnc1` (some centres undefined) the IC50 was > 50 µM (inactive). `O=C(COc1ncnc2cc([N+](=O)[O-])ccc12)NC(=O)NC1CCCCC1` was tested, and the IC50 was > 50 µM (inactive). Molecule `O=S(=O)(NCC(c1cccnc1)N1CCN(c2ccccc2F)CC1)c1ccc(F)cc1` (centres undefined) has an IC50 of 4 µM. `COc1ccc2ncc(F)c(NC(=O)C3(O)CCC(NCc4ccc5c(c4)OCCO5)CC3)c2n1` (centres undefined) gave an IC50 of 40 µM. `O=C(NCC(c1cccnc1)N1CCc2ccccc2C1)C(=O)Nc1cccc(Cl)c1` (centres undefined) gave an IC50 of 1.3 µM. For `CNC(=O)C1Cc2ccccc2N1C(=O)COc1cccc(OC)c1` (centres undefined), the IC50 was > 50 µM (inactive). In the case of `C[C@@H](Oc1cc(-n2cnc3cc(N)ccc32)sc1C(N)=O)c1ccccc1Cl`, the IC50 is reported as 3.2 µM. Work on `CC(=O)NCCNc1cc(-c2ccnc(Nc3cccc(Cl)c3)n2)ccn1` yielded an IC50 of 0.32 µM. `CN(Cc1ccc(C(N)=O)cc1)C(c1ccc(F)cc1)c1cccnc1` (centres undefined) was tested, and the IC50 was > 50 µM (inactive). With `CC1=NN(C(=O)CCn2cnc([N+](=O)[O-])n2)C(O)(C(F)(F)F)C1` (centres undefined) the IC50 was > 50 µM (inactive). Molecule `O=C(NC(CO)c1ccc(F)cc1)c1ccc(-c2c[nH]c3ncccc23)s1` (centres undefined) has an IC50 of 32 µM. For `CC(C(=O)Nc1ccc(Br)cc1)N1CCN(c2ccc([N+](=O)[O-])cc2)CC1` (centres undefined), the IC50 was > 50 µM (inactive). `O=C(COc1nn(-c2ccccc2)c2ncccc12)NCc1ccccc1` showed an IC50 of 0.4 µM. `CC(=O)Nc1ccc(-c2csc(NC(=O)c3ccc([N+](=O)[O-])s3)n2)cc1` was tested, and the IC50 was 0.4 µM. `Cc1cc2ncn(-c3ccc([N+](=O)[O-])cc3C#N)c2cc1C` was tested, and the IC50 was > 50 µM (inactive). `Cc1ccc(Nc2nc(-c3ccccn3)cc(N3CCCC(O)C3)n2)cc1` (centres undefined) showed an IC50 of 2 µM. `O=C(NCCc1cccnc1)c1csc(-c2ccccc2)n1` was tested, and the IC50 was > 50 µM (inactive). `Cc1[nH]n2c(=O)c3c(nc2c1-c1ccc(Br)cc1)CCCC3` showed an IC50 of 10 µM. In the case of `CC(C)N(C(=O)CN1C(=O)C(N)C(=O)N(c2ccccc2)c2ccccc21)c1ccccc1` (centres undefined), the IC50 is reported as > 50 µM (inactive). For `NC(=O)c1ccc(-c2cccc(OCCN3CCN(C4CCCCC4)CC3)c2)cc1`, the IC50 was > 50 µM (inactive). For `CCNc1cc(-c2ccccn2)nc(Nc2ccc(OC)cc2)n1`, the IC50 was 1.6 µM. For `Cc1nn(-c2ccccc2)nc1CNC(=O)CN(Cc1ccccn1)Cc1ccccn1`, the IC50 was 7.9 µM. `COc1ccc(NS(=O)(=O)c2ccc(S(=O)(=O)N(C)C3CCCCC3)cc2)c2ncccc12` was tested, and the IC50 was > 50 µM (inactive). Molecule `COc1ccc(C2C3CCCCC3(O)CCN2CC(=O)Nc2ccc(Cl)cc2Cl)cc1` (centres undefined) has an IC50 of 1.6 µM. In the case of `c1ccc(-c2nc(NC3CCCCC3)cc(C3CC3)n2)nc1`, the IC50 is reported as 0.79 µM. For `O=C(Nc1ccc(C(=O)N2CCCC2c2ccc3c(c2)OCCCO3)cc1)c1ccco1` (centres undefined), the IC50 was 0.79 µM. With `COCCn1c(-c2ccccc2)cnc1NCc1ccccc1OC` the IC50 was > 50 µM (inactive). Work on `NC(=O)c1ncccc1Nc1nc(NC2CCC(O)CC2)ncc1Br` (centres undefined) yielded an IC50 of 1.3 µM. `Fc1ccccc1N1C[C@H]2CCN(c3cccnc3)C[C@H]2C1` was tested, and the IC50 was 13 µM. With `Cc1cc(C)cc(NS(=O)(=O)c2cc(-c3cc(C)[nH]n3)ccc2C)c1` the IC50 was 2.5 µM. `Oc1c(-c2n[nH]c(Cc3ccc(F)cc3)n2)ncc2cccnc12` gave an IC50 of 0.13 µM. `COc1cc(C2SCC(=O)Nc3c2c(C)nn3-c2nc3ccccc3s2)cc(OC)c1O` (centres undefined) showed an IC50 of 6.3 µM. Work on `COc1ccc(S(=O)(=O)Nc2ccc(C(=O)Nc3nc(-c4ccccn4)cs3)cc2)cc1` yielded an IC50 of 1 µM. For `CN(Cc1nc2ccc(C(=O)NCC3CCCCC3)cc2[nH]1)C1CCCc2cccnc21` (centres undefined), the IC50 was 3.2 µM. For `O=C(NCCc1csc(-c2ccc(F)cc2)n1)c1cccs1`, the IC50 was > 50 µM (inactive). `CN(C)CCOc1ccc(N2CCN(S(=O)(=O)c3ccc(Cl)cc3)CC2)cc1` was tested, and the IC50 was 40 µM. `Cc1cc(C)n(-c2nc(NC(C)(C)C)nc(N3CCOCC3)n2)n1` showed an IC50 of 6.3 µM. With `CCCCc1cc(Nc2cc(C3CCC3)[nH]n2)nc(N2CCC2C(N)=O)n1` (centres undefined) the IC50 was 4 µM. `CC(c1cc(Cl)cc(Cl)c1)N(C)c1ncc2c(N)nc(N)nc2n1` (centres undefined) showed an IC50 of 0.79 µM. `CS(=O)(=O)N1CCC(Nc2ncc(Br)c(Nc3cccc(F)c3C(N)=O)n2)CC1` gave an IC50 of 0.1 µM. With `CC(C)(C)C(=O)NCCc1csc(-c2ccc(F)cc2)n1` the IC50 was > 50 µM (inactive). In the case of `CN(C)S(=O)(=O)c1cccc(C(=O)Nc2nc(-c3ccccn3)cs2)c1`, the IC50 is reported as 1.3 µM. In the case of `Cc1nc(-c2ccncc2)ncc1C(C)NC(=O)c1ccc(Cl)s1` (centres undefined), the IC50 is reported as > 50 µM (inactive). With `CN1CCC(N(C)c2nccc(N3CCN(C(=O)c4cccc(-c5cccnc5)c4)CC3)n2)CC1` the IC50 was > 50 µM (inactive). In the case of `Cc1cccc(NS(=O)(=O)c2cnc3sc(C)cn3c2=O)c1`, the IC50 is reported as > 50 µM (inactive). In the case of `Cn1nc([N+](=O)[O-])nc1N1CCCCC1`, the IC50 is reported as > 50 µM (inactive). With `Cc1occc1C(=O)Nc1ccccc1C(=O)Nc1nccs1` the IC50 was > 50 µM (inactive). For `CCS(=O)(=O)Nc1ccc(C2=NN(C(=O)c3cccs3)C(c3ccccc3OC)C2)cc1` (centres undefined), the IC50 was 1.3 µM. Molecule `COc1ccc(NS(=O)(=O)c2cccc(NC(=O)c3cc(F)cc(F)c3)c2)cc1` has an IC50 of 3.2 µM. With `COCCn1c(-c2ccc3c(c2)OCO3)cnc1NCc1ccccc1OC` the IC50 was 13 µM. In the case of `CNc1cncc(C2CCCN2C(=O)Cc2ccc3ccccc3c2)n1` (centres undefined), the IC50 is reported as > 50 µM (inactive). Work on `CC(C)S(=O)(=O)c1ccc(-c2cnc(N)c3cc(-c4ccnc(N)n4)ccc23)cc1` yielded an IC50 of 2 µM. Molecule `CN(CCOc1ccc(Cl)cc1)Cc1nc(N)nc(N(C)C)n1` has an IC50 of 16 µM. In the case of `Cc1cc(N(C)C)nc(Nc2ccccc2C)n1`, the IC50 is reported as > 50 µM (inactive). In the case of `Cc1ccc(CNC2CCN(C[C@@H]3Cn4c(=O)ccc5ccc(=O)n3c54)CC2)cc1F`, the IC50 is reported as > 50 µM (inactive). With `O=C(CN1CCC2(O)CCCCC2C1c1ccc2c(c1)OCO2)Nc1ccc(Cl)cc1Cl` (centres undefined) the IC50 was 5 µM. For `COc1cc(OC)cc(C(NS(=O)(=O)c2ccc(Cl)c(C(F)(F)F)c2)c2nccn2C)c1` (centres undefined), the IC50 was 10 µM. `N#Cc1cccc(Nc2nccc(N3CCC(NS(=O)(=O)c4cccc(C#N)c4)CC3)n2)c1` showed an IC50 of 0.63 µM. For `Cc1nc(N2CCC(C(=O)N3CCC(O)(c4cccnc4)CC3)CC2)nc2ccc(C(C)C)cc12`, the IC50 was > 50 µM (inactive). With `Cc1cc(Br)sc1CNCCCNc1cc(=O)c2ccccc2[nH]1` the IC50 was > 50 µM (inactive). With `Cc1ccc(C)c(CN2C(=O)NC3(CCc4ccccc43)C2=O)c1` (centres undefined) the IC50 was > 50 µM (inactive). For `Cc1ccccc1NS(=O)(=O)c1ccc2[nH]cc(C(=O)NC3CCCC(C)C3C)c(=O)c2c1` (centres undefined), the IC50 was 25 µM. With `CCN(CC)S(=O)(=O)c1ccc(Cn2nc(C(=O)Nc3ccncn3)c3ccccc32)cc1` the IC50 was > 50 µM (inactive). In the case of `COc1cc2c(cc1OC)[C@H]1[C@@H](C)c3ccc(OC)c(OC)c3CN1CC2`, the IC50 is reported as 2.5 µM. `COc1ccc2ncc(Cl)c(CCN3CC[C@@H](NCc4cc5c(cn4)OCS5)[C@H](O)C3)c2n1` showed an IC50 of 10 µM. With `CN1CCN(c2nc(-c3ccc(Cl)cc3)c3c(N)n(C)nc3n2)CC1` the IC50 was > 50 µM (inactive). Work on `Cc1cc(C)nc(N2CCC(N(Cc3cccnc3)C(=O)c3cccc(C#N)c3)CC2)n1` yielded an IC50 of 5 µM. `O=C(NCC1CCCCC1)c1cc(=O)c2ccccc2o1` was tested, and the IC50 was 5 µM. Work on `CC1(C)CCC(=Cc2ccc(Cl)cc2)CC1(O)Cn1ccnc1` (centres undefined) yielded an IC50 of 2.5 µM. Work on `COc1cnc2ccc(=O)n(CCN3CCC(NC(=O)c4ccc(Cl)cc4)CC3)c2c1` yielded an IC50 of 2 µM. Work on `CC(C(=O)Nc1ccccc1F)N(C)CC(=O)Nc1cccc2ccccc12` (centres undefined) yielded an IC50 of 50 µM. `CN(Cc1nc2ccccc2s1)C(=O)C=Cc1cc2ccccc2o1` showed an IC50 of 50 µM. With `COc1ccc(C(C)(C)C)cc1S(=O)(=O)n1ccnc1` the IC50 was 40 µM. Molecule `c1ccc2sc(Nc3nc4ncccc4[nH]3)nc2c1` has an IC50 of 1.6 µM. In the case of `Cc1ccc(S(=O)(=O)Cn2nnnc2C(c2cccnc2)N2CCN(c3ccccc3)CC2)cc1` (centres undefined), the IC50 is reported as 1 µM. Molecule `O=C(NCCc1cccnc1)c1ccc(-c2ccccc2F)o1` has an IC50 of 20 µM. In the case of `CNc1c(C(N)=O)c(-c2ccc3scnc3c2)nn1CC(F)(F)F`, the IC50 is reported as > 50 µM (inactive). `COc1ccc(S(=O)(=O)Nc2ccc(CN3CCN(C(=O)c4cccc(C#N)c4)CC3)cc2)cc1` showed an IC50 of 32 µM. `O=C(Nc1nc(-c2ccccn2)cs1)C1CCc2ccccc2C1` (centres undefined) gave an IC50 of 5 µM. With `CN(C)Cc1ccc(N2CCC(NS(=O)(=O)c3ccc(Cl)cc3)CC2)cc1` the IC50 was 40 µM. `Cc1ccc(S(=O)(=O)Nc2ccc(CN3CCN(C(=O)c4cccc(C#N)c4)CC3)cc2)cc1` showed an IC50 of 10 µM. `Oc1c(-c2n[nH]c(CCc3ccccc3)n2)ncc2cccnc12` was tested, and the IC50 was 0.32 µM. Work on `COc1ccc(-c2csc(NC(=O)c3ccc([N+](=O)[O-])s3)n2)cc1` yielded an IC50 of 3.2 µM. Molecule `CCC(=O)Nc1ccc(C(=O)Nc2ccccc2-c2ccccc2)cc1` has an IC50 of 10 µM. Molecule `O=S(=O)(c1ccccc1C(F)(F)F)N1CCN(Cc2ccc(-n3ccnc3)cc2)CC1` has an IC50 of 6.3 µM. `COc1ccc(C(=O)[C@H]2C[C@@H]2CN(Cc2ccccn2)Cc2ccccn2)cc1` gave an IC50 of 7.9 µM. For `Cc1cc2nc(N3CC[C@H]3C(N)=O)nc(Nc3cc(C4CC4)[nH]n3)c2s1`, the IC50 was 0.79 µM. `Cc1cc(Nc2cc(C3CC3)[nH]n2)nc(N2CCCC2)n1` showed an IC50 of 0.79 µM. With `N#Cc1ccc(C(=O)Nc2cccc(-c3cccc(CN4CCC(O)CC4)c3)c2)cc1` the IC50 was > 50 µM (inactive). In the case of `CS(=O)(=O)c1ccc(Nc2nccc(Nc3n[nH]c4ccc(F)cc34)n2)c(F)c1`, the IC50 is reported as 13 µM. With `CCN(CC)S(=O)(=O)c1ccc(C)c(NC(=O)c2cc(Cl)c3c(c2)OCO3)c1` the IC50 was > 50 µM (inactive). With `N#Cc1cccc(CN2CCC(N(Cc3cccnc3)C(=O)c3cc(F)c(F)cc3F)CC2)c1` the IC50 was > 50 µM (inactive). In the case of `Fc1ccc(OC2CC(NCc3cccc4cn[nH]c34)C2)cc1C(F)(F)F` (centres undefined), the IC50 is reported as 20 µM. In the case of `COc1cccc(Nc2cc(C)nc(-c3ccccn3)n2)c1`, the IC50 is reported as 4 µM.
